Measured values: patent publication US9309213B2, “C-3 substituted bicyclooctane based HIV protease inhibitors” (Purdue Research Foundation, priority 2011, dated 2016)
Like-named read-outs stand apart in the source and are kept apart here.

Columns and labels:
Format in all cases: cell-based
[1] = system: HIV-1ERS104pre (wild type); test: Antiviral assay in PHA-PBMs, inhibition of p24 Gag protein production, wild-type isolate
[2] = system: multidrug-resistant HIV-1 variants; test: Antiviral activity against the panel of multidrug-resistant HIV-1 variants
Procedure: Inhibitors 22 with a 3(S)-hydroxyl group and 25 with a 3(R)-hydroxyl group on the Cp-THF ligand were tested against a panel of multidrug-resistant HIV-1 variants. […] The contrast in antiviral activity of 22 compared to 25 underlines the importance of the stereochemistry at the 3-position of the Cp-THF ligand.
Such a stark contrast in antiviral activities underlines the importance of the stereochemistry at the 3-position of the P2 ligand.

HIV-1MDR/TM = test: microbe, parasite or virus in culture; conditions: for EC50 / fold-change in EC50: Table 4; for EC50: HIV-1MDR/TM (X4), PHA-PBMs, p24 Gag; for fold-change in EC50: HIV-1MDR/TM compared to wild-type HIV-1ERS104pre
HIV-1MDR/G = test: microbe, parasite or virus in culture; conditions: for EC50 / fold-change in EC50: Table 4; for EC50: HIV-1MDR/G (X4), PHA-PBMs, p24 Gag; for fold-change in EC50: HIV-1MDR/G compared to wild-type HIV-1ERS104pre
HIV-1MDR/B = test: microbe, parasite or virus in culture; conditions: for EC50 / fold-change in EC50: Table 4; for EC50: HIV-1MDR/B (X4), PHA-PBMs, p24 Gag; for fold-change in EC50: HIV-1MDR/B compared to wild-type HIV-1ERS104pre
HIV-1MDR/C = test: microbe, parasite or virus in culture; conditions: for EC50 / fold-change in EC50: Table 4; for EC50: HIV-1MDR/C (X4), PHA-PBMs, p24 Gag; for fold-change in EC50: HIV-1MDR/C compared to wild-type HIV-1ERS104pre
HIV-1LAI = test: In vitro antiviral assay, MT-2 cells exposed to HIV-1LAI, MTT assay
[3] = Human immunodeficiency virus 1, read-out: IC50 ± SDs

`COC(=O)N[C@@H]1CO[C@@H]2C[C@H](OC(=O)N[C@@H](Cc3ccccc3)[C@H](O)CN(CC(C)C)S(=O)(=O)c3ccc(OC)cc3)C[C@H]12` [Inhibitor 19l] was tested, and the EC50 ([1]; Table 4, HIV-1ERS104pre (wt), PHA-PBMs, p24 Gag, read-out: EC50 ± SDs) was 29 ± 2 nM, the “fold changes in EC50” value ([2]; all MDR HIV-1 viruses versus wild type) was < 3 and the EC50 (HIV-1MDR/TM) was 74 ± 6 nM. For the same compound, the “fold-change in EC50” value (HIV-1MDR/TM) was 3, the EC50 (HIV-1MDR/G) was 39 ± 1 nM and the “fold-change in EC50” value (HIV-1MDR/G) was 1. The EC50 (HIV-1MDR/B) was 75 ± 11 nM, the “fold-change in EC50” value (HIV-1MDR/B) was 3 and the EC50 (HIV-1MDR/C) was 30 ± 6 nM. The “fold-change in EC50” value (HIV-1MDR/C) was 1.
Work on `COC(=O)N[C@H]1CO[C@@H]2C[C@H](OC(=O)N[C@@H](Cc3ccccc3)[C@H](O)CN(CC(C)C)S(=O)(=O)c3ccc(OC)cc3)C[C@H]12` [Inhibitor 19m] yielded an EC50 ([1]; wild-type HIV-1ERS104pre, read-out: EC50) of 3 nM, an EC50 ([2]; range over the strains) of 15 to 24 nM and an EC50 (HIV-1MDR/TM) of 24 ± 4 nM. For the same compound, the “fold-change in EC50” value (HIV-1MDR/TM) was 8, the EC50 (HIV-1MDR/G) was 20 ± 5 nM and the “fold-change in EC50” value (HIV-1MDR/G) was 7. The EC50 (HIV-1MDR/B) was 18 ± 3 nM, the “fold-change in EC50” value (HIV-1MDR/B) was 6 and the EC50 (HIV-1MDR/C) was 15 ± 5 nM. The “fold-change in EC50” value (HIV-1MDR/C) was 5.
Work on `COc1ccc(S(=O)(=O)N(CC(C)C)C[C@@H](O)[C@H](Cc2ccccc2)NC(=O)O[C@@H]2C[C@@H]3[C@@H](O)CO[C@@H]3C2)cc1` [Inhibitor 25] yielded an IC50 ([1]; Human immunodeficiency virus 1) of 2.9 nM, an IC50 [1, 3] of 2.9 ± 0.8 nM and an IC50 ([2]; Human immunodeficiency virus 1, read-out: IC50 values against various multidrug-resistant HIV-1 strains) of 2.9 to 29 nM. It also gave an IC50 (HIV-1LAI; Human immunodeficiency virus 1, MT2, Table 1, MT-2 cells, 100 TCID50s of HIV-1LAI, MTT assay, means of at least two experiments) of 2.9 nM, an IC50 (HIV-1LAI; Human immunodeficiency virus 1, MT2, read-out: antiviral IC50) of 2.9 nM and an IC50 (HIV-1MDR/TM; [3]) of 3.1 ± 2 nM. It also gave an IC50 (HIV-1MDR/G; [3]) of 4.5 ± 0.7 nM, an IC50 (HIV-1MDR/B; [3]) of 29 ± 7 nM and an IC50 (HIV-1MDR/C; [3]) of 22 ± 3 nM.
